Source: patent US6534632B2, “Sialidase localized in plasma membrane DNA coding for the same” (priority 1997, dated 2003)
Like-named read-outs stand apart in the source and are kept apart here.

How the values were obtained:
Format in all cases: biochemical
[1] = target: T1, bovine membrane-bound sialidase (Bos taurus, UniProt O97859); test: Inhibition, activation and stabilization of purified bovine membrane-bound sialidase; settings: in words
T1 construct: the sialidase activity was purified by more than 100,000 times from the bovine brain particulate fraction; from tissue; host or cells: bovine brain (particulate/membrane fraction, detergent-solubilized, 10-step chromatographic purification)
T1 sequence (O97859 1-428): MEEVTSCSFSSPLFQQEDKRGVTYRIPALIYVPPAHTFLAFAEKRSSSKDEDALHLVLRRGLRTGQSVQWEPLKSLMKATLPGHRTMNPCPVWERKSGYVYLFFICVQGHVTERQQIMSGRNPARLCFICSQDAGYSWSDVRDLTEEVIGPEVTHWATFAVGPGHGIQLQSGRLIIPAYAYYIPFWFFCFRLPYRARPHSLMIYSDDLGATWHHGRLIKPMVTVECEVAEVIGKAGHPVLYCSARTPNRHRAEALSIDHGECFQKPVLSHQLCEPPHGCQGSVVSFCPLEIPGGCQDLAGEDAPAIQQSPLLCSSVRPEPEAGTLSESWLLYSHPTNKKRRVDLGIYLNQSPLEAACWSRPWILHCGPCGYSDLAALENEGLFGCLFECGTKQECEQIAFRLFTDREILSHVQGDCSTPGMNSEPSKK

[2] = target: T1, bovine membrane-bound sialidase; test: as above; settings: for Inhibition of the sialidase: in words; for Inhibition (%): 100 minus residual activity (%)
Method: (§1) A reaction system (0.2 ml) contained 50-100 nmol of sialic acid-bound saccharide substrate, 0.2 mg of bovine serum albumin, […] of sodium acetate buffer (pH 4.6), 0.2 mg of Triton X-100, and an enzyme fraction, and a substrate consisting mainly of bovine brain mixed gangliosides (Sigma, Type II) was used.
(§2) A reaction mixture having the aforementioned composition was incubated at 37° C. for 15-60 minutes, and the reaction was stopped by quick freezing. The released sialic acid was quantitated by the thiobarbituric acid method of Warren (Warren L., J. Biol. Chem. 234, 1971-1975, 1959) at 549 nm and 532 nm. In Steps 1, 2, and 7 explained below, the quantitation was performed by the same method after the reaction product was passed through an AGX-2 ion exchange mini column. The amount of the sialic acid (nmol) released per hour was defined as 1 unit. When a synthetic substrate, 4-methylumbelliferyl N-acetylneuraminic acid (4MU-NeuAc) was used as the sialic acid-bound saccharide substrate, Triton X-100 was excluded from the reaction system, and released 4-methylumbelliferone was quantitated by a fluorospectrophotometer.
The numerical values each represent 100 minus (residual activity (%) in the presence of inhibitor).

[3] = target: T1, bovine membrane-bound sialidase; test: Sialidase activity of purified bovine membrane-bound sialidase for various substrates (substrate specificity); settings: for Hydrolysis activity (%): relative activity, activity for GD3-ganglioside defined as 100, purified enzyme
Method: as §1, §2
The results of investigations about the activity of the enzyme of the present invention for various substrates are shown in Table 2. The numerical values represent relative activity when the activity for the GD3-ganglioside is defined to be 100.

| Compound | Substrate specificity: whether the sialidase acts on the substrate [3] | Hydrolysis activity (%) [3] [%] | also measured |
| --- | --- | --- | --- |
| O[C@H](CS)[C@H](O)CS (racemic) [dithiothreitol] | – | – | Stabilization of the sialidase [1]: stabilized |
| CC(=O)N[C@H]1[C@H]([C@H](O)[C@H](O)CO)OC(C(=O)O)=C[C@@H]1O [2-deoxy-2,3-dehydro-N-acetylneuraminic acid] | – | – | Stabilization of the sialidase [1]: stabilized; Inhibition of the sialidase [2]: weakly inhibited; Inhibition (%) ([2]; inhibitor 0.2 mM): 45% |
| O=C(O)c1cc[c]([Hg][OH])cc1 [4-Hydroxy mercury benzoate] | – | – | Inhibition of the sialidase [2]: strongly inhibited; Inhibition (%) ([2]; inhibitor 50 μM): 92% |
| CC(=O)N[C@H]1[C@H]([C@H](O)[C@H](O)CO)OC(Oc2ccc3c(C)cc(=O)oc3c2)(C(=O)O)C[C@@H]1O (some centres unmarked) [4-MUNeuAc, 4-methylumbelliferyl N-acetylneuraminic acid] | weakly acts on | 25 | – |
| [Cl][Cu][Cl] [CuCl2] | – | – | Inhibition (%) ([2]; inhibitor 1 mM): 95% |
| [Cu+2] [Cu^2+] | – | – | Inhibition of the sialidase [2]: strongly inhibited |
| OCC(O)CO [glycerol] | – | – | Stabilization of the sialidase [1]: stabilized |
| CC(=O)N[C@H]1[C@H]([C@H](O)[C@H](O)CO)O[C@@](O[C@H]2[C@@H](O)[C@@H](CO)O[C@@H](O[C@H]3[C@H](O)[C@@H](O)C(O)O[C@@H]3CO)[C@@H]2O)(C(=O)O)C[C@@H]1O (stereo partly drawn) [α2-3 syalyllactose, α2-3 sialyllactose] | did not act on | 11 | Substrate specificity: whether the sialidase acts on the substrate ([3]; listed as α2-3 sialyllactose): weakly acts on |
| Fetuin: glycoprotein substrate | does not substantially act on | 2 | – |
| GD1a-ganglioside | acts on | 56 | – |
| GD3-ganglioside | acts on | 100 | – |
| GM1-ganglioside | does not substantially act on | 1 | – |
| GM2-ganglioside | does not substantially act on | 3 | – |
| GM3-ganglioside | acts on | 62 | – |
| Orosomucoid: glycoprotein substrate | does not substantially act on | 2 | – |
| Triton X-100 | – | – | Sialidase activity in the presence of surface active agent ([2]; 0.1 to 0.2% of Triton X-100): highly active |
